Assay results published in ChEMBL document CHEMBL1158429, “Selective cytochrome P450 3A4 inhibitory activity of Amaryllidaceae alkaloids” (Bioorg Med Chem Lett, 2009).

Target: Cytochrome P450 3A4 (Homo sapiens, UniProt P08684)
Test: Inhibition of human CYP3A4 assessed as biotransformation of 7-benzyloxyquinoline; call rule not given here
Assay type: ADME

Cytochrome P450 3A4, sequence (P08684 whole entry): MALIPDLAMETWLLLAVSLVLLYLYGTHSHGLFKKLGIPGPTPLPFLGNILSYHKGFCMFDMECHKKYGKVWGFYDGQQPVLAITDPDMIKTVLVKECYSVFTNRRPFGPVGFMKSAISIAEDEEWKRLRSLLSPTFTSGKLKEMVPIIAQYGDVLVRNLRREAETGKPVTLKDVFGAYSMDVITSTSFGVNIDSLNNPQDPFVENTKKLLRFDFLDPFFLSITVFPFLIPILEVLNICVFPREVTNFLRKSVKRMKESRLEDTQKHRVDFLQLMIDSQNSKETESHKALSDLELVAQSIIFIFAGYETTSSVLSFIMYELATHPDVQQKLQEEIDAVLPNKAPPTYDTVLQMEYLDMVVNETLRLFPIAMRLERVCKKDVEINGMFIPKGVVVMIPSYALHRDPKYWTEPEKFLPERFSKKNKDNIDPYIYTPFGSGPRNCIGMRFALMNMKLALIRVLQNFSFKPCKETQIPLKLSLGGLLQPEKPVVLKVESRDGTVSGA

Work on `CC(C)(C)[Si](C)(C)O[C@H]1C=C2CCN3Cc4cc5c(cc4[C@H]([C@@H]1O)[C@@H]23)OCO5` yielded a Ki (read-out: Ki) of 260 nM.

For `O=C1N[C@@H]2C(=C[C@H](O)[C@@H](O)[C@H]2O)c2cc3c(c(O)c21)OCO3` [NARCICLASINE], the Ki (read-out: Ki) was 630 nM.

`O=C1N[C@H]2[C@H](O)[C@H](O)[C@@H](O)[C@H](O)[C@@H]2c2cc3c(c(O)c21)OCO3` [PANCRATISTATIN] was tested, and the Ki was “Not Active”.

In the case of `O[C@H]1[C@H]2c3cc4c(cc3CN3CCC(=C[C@@H]1O)[C@H]23)OCO4` [LYCORINE], the Ki is reported as “Not Active”.

`CC(=O)O[C@H]1[C@H]2c3cc4c(cc3CN3CCC(=C[C@@H]1OC(C)=O)[C@H]23)OCO4` was tested, and the Ki (read-out: Ki) was 11000 nM.

Compound `CC(=O)O[C@H]1[C@H]2c3cc4c(cc3CN3CCC(=C[C@@H]1O)[C@H]23)OCO4` has a Ki (read-out: Ki) of 7600 nM.

For `CC(=O)O[C@H]1[C@H]2c3cc4c(cc3CN3CCC(=C[C@@H]1O[Si](C)(C)C(C)(C)C)[C@H]23)OCO4`, the Ki (read-out: Ki) was 210 nM and the Ki (read-out: pKi (converted)) was 158 nM.
